In patent publication US9566222B2, “Peptidyl arginine deiminase 1 and/or 3 activator compounds in the epidermis and uses thereof” (PIERRE FABRE DERMO-COSMETIQUE, priority 2011, dated 2017):

How the values were obtained:
PAD1 = target: T1, PAD1 (Homo sapiens, UniProt Q9ULC6); assay: Deimination of recombinant human filaggrin (Fil-His) by PAD1, immunodetection with AMC anti-citrulline antibody; assay type: biochemical; conditions: 5 mM streptomycin vs solvent alone (1% dimethylsulfoxide); 3 or 5 min incubation
T1 construct: purchased Professor Hidenari Takahara (University of Ibaraki, Japan)
T1 sequence (Q9ULC6 1-663): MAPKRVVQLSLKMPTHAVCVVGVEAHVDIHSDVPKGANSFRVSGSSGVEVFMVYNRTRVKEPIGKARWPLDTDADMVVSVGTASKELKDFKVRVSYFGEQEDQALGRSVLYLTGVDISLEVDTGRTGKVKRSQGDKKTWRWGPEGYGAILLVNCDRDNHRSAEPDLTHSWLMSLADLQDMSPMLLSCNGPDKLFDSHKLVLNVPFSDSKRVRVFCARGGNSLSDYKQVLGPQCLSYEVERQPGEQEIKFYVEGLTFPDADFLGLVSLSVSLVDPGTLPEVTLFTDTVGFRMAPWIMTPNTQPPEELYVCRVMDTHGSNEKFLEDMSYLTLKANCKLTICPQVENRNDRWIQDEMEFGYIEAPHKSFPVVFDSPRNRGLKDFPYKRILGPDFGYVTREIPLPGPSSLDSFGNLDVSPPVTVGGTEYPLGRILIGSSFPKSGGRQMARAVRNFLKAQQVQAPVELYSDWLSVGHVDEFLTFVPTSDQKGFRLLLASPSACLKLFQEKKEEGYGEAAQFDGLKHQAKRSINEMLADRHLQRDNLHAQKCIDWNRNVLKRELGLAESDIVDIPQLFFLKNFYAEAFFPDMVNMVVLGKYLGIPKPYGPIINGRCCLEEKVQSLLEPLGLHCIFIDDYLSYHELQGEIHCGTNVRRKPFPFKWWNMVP
Protocol: 25 ng of Fil-His was incubated at 50° C. in the presence of 40 mU of PAD1 or PAD3 in deimination buffer (10 mM CaCl2, 5 mM dithiothreitol, 50 mM Tris-HCl pH 7.4). After a variable incubation period according to the PAD isoform (generally 2 to 5 minutes for PAD1 and 60 to 180 minutes for PAD3), the reaction was quenched by adding sample buffer. The proteins were then separated by SDS-PAGE and immunodetected by AHF11 anti-filaggrin monoclonal antibody and AMC modified anti-citrulline antibody (Millipore, Mollsheim, France) diluted to 1/5000.
The deimination of Fil-His (25 ng) was carried out as described above (paragraph A.3), in deimination buffer (10 mM CaCl2, 5 mM dithiothreitol, 50 mM Tris-HCl pH 7.4) at 50° C. in the presence of 40 mU of PAD1 or PAD3, for 0, 3, 5, 60 and 180 minutes. […] In certain cases, the active agents were diluted in water. After incubation, the proteins of the reaction mixture were immunodetected by AMC antibody. The immunodetection intensity was quantified by densitometry with the NIH ImageJ software.

[1] = tested on: Reconstructed human epidermises; assay: Deiminated proteins in horny layer of reconstructed epidermises after topical gel, immunohistology (AMC); assay type: cell-based; conditions: gel containing 3% acefylline as sodium salt, 24 hours
Protocol: Reconstructed human epidermises 0.33 cm^2 in size were grown at the air-liquid interface for 14 days. 5 mg/cm^2 of pre-formulas containing the various active agents was then applied homogeneously to their surface using a brush. Triplicates were carried out for a treatment period of 24 hours at 37° C. The epidermises were then divided: half were frozen in Tissue Tek and then 6 μm cryo-sections were made for immunohistology; the other half were dry frozen at −80° C. for the preparation of total protein extracts before analysis by Western blot.
The deiminated proteins were immunodetected as described above after incubation in modification buffer. Negative controls were prepared systematically by omitting the modification. After washing with water, the sections were incubated with AMC anti-citrulline antibody diluted to 1/1000. Finally, counter-staining was carried out with hematoxylin.

Row | Effect on PAD1 (AMC immunodetection intensity of deiminated Fil-His) (PAD1) | Structure (SMILES) | Immunodetection intensity (AMC staining) of the horny layer vs control gel [1]
1 | inhibited | [H]/N=C(/N)N[C@H]1[C@H](O)[C@@H](O)[C@H](O[C@@H]2O[C@@H](C)[C@](O)(C=O)[C@H]2O[C@@H]2O[C@@H](CO)[C@H](O)[C@@H](O)[C@@H]2NC)[C@@H](N/C(N)=N\[H])[C@@H]1O [streptomycin] | 
2 |  | Cn1c(=O)c2c(ncn2CC(=O)[O-])n(C)c1=O.[Na+] [acefylline in the form of sodium salt] | stronger
